Data taken from PMC10747602, “Dose Response, Dosimetric, and Metabolic Evaluations of Replacement PFAS Perfluoro-(2,5,8-trimethyl-3,6,9-trioxadodecanoic) Acid (HFPO-TeA)” (Toxics, 2023).
“And” between values parts separate entries of the source, which are not always exact repeats. Equal values may be shown once.

Experiments:
human hepatocytes = test: Hepatocyte metabolic stability (clearance) assay, human hepatocytes; conditions: for Negative Control Data, No cells (NC), Ln Concentration / Negative Control Data, Heat Treated (HT), Ln Concentration / Ln Concentration / Linear Regression Best-Fit Slope (ln concentration vs time): 1000 nM; for Negative Control Data, No cells (NC), Ln Concentration / Negative Control Data, Heat Treated (HT), Ln Concentration / Ln Concentration: Rep 1-3; for Clin vitro / Negative Control Data, Heat Treated (HT), Ln Concentration / Ln Concentration / Linear Regression Best-Fit Slope (ln concentration vs time): human hepatocytes; for Clin vitro: 1 µM; for Linear Regression Best-Fit Slope (ln concentration vs time): time in min
Method: Information on the chemicals and materials used in the hepatocyte metabolic work can be found in Supplementary Text S9 and Table S3. In vitro evaluations of hepatocyte metabolic stability were performed in human and rat hepatocytes, as previously described. Briefly, pooled, cryopreserved hepatocyte suspensions were thawed, assessed for viability, and then diluted in William’s medium E containing dexamethasone and cell maintenance cocktail B to achieve a cell density of 50,000 cells/100 µL. The assay was started by adding hepatocyte suspensions to wells of 96-well polypropylene plates containing an equal volume of media with 2 µM of analyte (final assay concentration: 1 µM). Plates were placed in a 37 °C cell culture incubator (5% CO2) on a shaker set to 200 rpm. Time points assessed were T0, T15, T30, T60, T120, and T240 min. At each time point, the plates were removed from the shaker and the incubates were crashed with an equal volume of ice-cold ACN containing 1.2% FA and 16 ng/mL of ^13C3 -HFPO-DA. After chilling and centrifugation at 4122× g, the supernatants were transferred to new collection plates and stored at −70 °C until analysis for the parent compound on the Waters instrumentation described below. Immediately prior to analysis, samples were thawed, vortexed, and centrifuged at 4200× g, and then diluted 1:4 in 95:5 H2O/ACN with 2.5 mM of ammonium acetate. Negative controls, including no cell controls and metabolically inactivated hepatocytes, were run concurrently to assess the chemical stability over the time course.
Intrinsic clearance (Clint; hepatic clearance) calculations are detailed in Supplementary Text S9 [57].
Targeted, quantitative analysis of in vitro hepatocyte metabolic stability and plasma protein binding assay samples was conducted on a Waters Xevo-TQS micro mass spectrometer (Waters, Milford, MA, USA) ultra-high-performance liquid chromatography tandem mass spectrometry system (UPLC-MS/MS), modified with a PFAS analysis kit. Samples were analyzed in negative ion mode with UniSpray ionization. A CORTECS T3 column (Waters CORTECS, 3 × 100 mm, particle size 2.7 µm) was used for chromatographic separation with a flow rate of 0.6 mL/min and a temperature of 55 °C. Gradient elution was used with eluent A (95:5 H2O/ACN) and eluent B (95:5 ACN/H2O) with 2.5 mM of ammonium acetate. The gradient is available in Table S11. Additional details for MS parameters are found in Table S12 and monitored transitions are found in Table S13.
Table S2: Data processing parameters used with Sciex MarkerView 1.3.1.
Support ing Text S9: Hepatocyte Metabolic Stability Assay Materials, Chemicals, and Calculations
Pooled human and rat cryopreserved primary hepatocyte suspensions were both obtained from
BioIVT, a US Food and Drug Administration-licensed and inspected donor center, and produced using
non-transplantable tissue.
William’s E media, dexamet hasone (98% pure), and cell maintenance cocktail B were obtained from
Thermo Fisher Scientific (Waltham, MA, USA), the OptiThaw hepatocyte kit from Sekisui/Xenotech
(Tokyo, Japan), and the trypan blue s (Sekisui/ Xenotech, Tokyo, Japan) and the trypan blue solution from […]

hepatocytes = test: Hepatic metabolite formation assay with non-targeted analysis; assay type: in vitro ADME, human and rat
Method: Extracts of plasma (50 µL), liver (10 mg), and hepatocyte metabolism assay media (10 µL) were analyzed by high-resolution, accurate mass non-targeted analysis (NTA) for the detection and identification of potential biotransformation products of HFPO-TeA. A mixture of ^13C-labeled PFAS compounds (MPAC-C-ES, Wellington Laboratories, Guelph, ON, Canada) were used as tracers. Samples were extracted, as detailed above (in vivo) and below (in vitro), and then analyzed in triplicate in a randomized order on a Sciex X500R QTOF. Additional information on NTA instrumental analysis and data processing parameters is presented in Supplementary Text S8 and Tables S8 and S10 [52]. […] A screening list of potential biotransformation products was generated using the U.S. EPA web application CTS: Chemical Transformation Simulator 1.0 and Biotransformer 3.0 [53, 54]. In some instances, molecular structure predictions were performed using MetFrag.
For the hepatic metabolite formation assays, the procedure described above was followed with the following modifications: assay concentrations of 50 and 100 µM were used, and samples were collected at times T0, T30, T60, and T120 min. Aliquots (10 µL) were combined with an equal volume of H2O. Non-targeted screening of potential biotransformation or degradation products of these samples was performed on the Sciex instrumentation described above.

Compound: O=C(O)C(F)(OC(F)(F)C(F)(OC(F)(F)C(F)(OC(F)(F)C(F)(F)C(F)(F)F)C(F)(F)F)C(F)(F)F)C(F)(F)F (centres unmarked) [HFPO-TeA, perfluoro-(2,5,8-trimethyl-3,6,9-trioxadodecanoic) acid]
- Negative Control Data, No cells (NC), Ln Concentration (human hepatocytes; 15 min): 3.2431 and 3.8547 and 4.8392
- Negative Control Data, No cells (NC), Ln Concentration (human hepatocytes; 240 min): 4.3983 and 4.1513 and 4.1952
- Clin vitro (human hepatocytes): 0 µL/min/106 cells
- Negative Control Data, Heat Treated (HT), Ln Concentration (human hepatocytes; 15 min): 3.2431 and 3.8547 and 4.8392
- Negative Control Data, Heat Treated (HT), Ln Concentration (human hepatocytes; 240 min): 3.9071 and 4.4271 and 4.0870
- Ln Concentration (human hepatocytes; time 0 min): 4.4318 and 4.5113 and 4.4280
- Ln Concentration (human hepatocytes; time 15 min): 4.5753 and 4.4697 and 3.8582
- Ln Concentration (human hepatocytes; time 30 min): 3.6875 and 3.5788 and 3.6553
- Ln Concentration (human hepatocytes; time 60 min): 3.0465 and 3.5032 and 3.8121
- Ln Concentration (human hepatocytes; time 120 min): 4.2197 and 4.3067 and 4.1488
- Ln Concentration (human hepatocytes; time 240 min): 3.9567 and 3.8156 and 4.0422
- Linear Regression Best-Fit Slope (ln concentration vs time) (human hepatocytes): 0.001224
- presence of predicted biotransformation products (non-targeted analysis) (hepatocytes; in vitro hepatocyte assays): None of the biotransformation products predicted using CTS were observed

Compound: O=C(O)C(F)(OC(F)(F)C(F)(F)C(F)(F)F)C(F)(F)F (centres unmarked) [HFPO-DA, perfluoro-2-methyl-3-oxahexanoic acid]
- Negative Control Data, No cells (NC), Ln Concentration (human hepatocytes; 15 min): 4.4067 and 4.8800 and 5.2467
- Negative Control Data, No cells (NC), Ln Concentration (human hepatocytes; 240 min): 4.0348 and 4.0907 and 4.1657
- Clin vitro (human hepatocytes): 0 µL/min/106 cells
- Negative Control Data, Heat Treated (HT), Ln Concentration (human hepatocytes; 15 min): 4.4067 and 4.8800 and 5.2467
- Negative Control Data, Heat Treated (HT), Ln Concentration (human hepatocytes; 240 min): 4.6325 and 4.7203 and 4.8737
- Ln Concentration (human hepatocytes; time 0 min): 4.0945 and 4.2370 and 4.1735
- Ln Concentration (human hepatocytes; time 15 min): 4.1372 and 3.3218 and 3.8504
- Ln Concentration (human hepatocytes; time 30 min): 4.2468 and 4.1368 and 4.2711
- Ln Concentration (human hepatocytes; time 60 min): 4.1233 and 4.2750 and 4.2651
- Ln Concentration (human hepatocytes; time 120 min): 4.3345 and 4.3751 and 4.3328
- Ln Concentration (human hepatocytes; time 240 min): 4.9658 and 4.7177 and 4.8428
- Linear Regression Best-Fit Slope (ln concentration vs time) (human hepatocytes): 0.0006364

Compound: O=C(O)C(F)(OC(F)(F)C(F)(OC(F)(F)C(F)(F)C(F)(F)F)C(F)(F)F)C(F)(F)F (centres unmarked) [HFPO-TA, perfluoro-(2,5-dimethyl-3,6-dioxanonanoic) acid]
- Negative Control Data, No cells (NC), Ln Concentration (human hepatocytes; 15 min): 4.3597 and 5.0085 and 5.1884
- Negative Control Data, No cells (NC), Ln Concentration (human hepatocytes; 240 min): 3.9371 and 3.9316 and 3.8367
- Clin vitro (human hepatocytes): 0 µL/min/106 cells
- Negative Control Data, Heat Treated (HT), Ln Concentration (human hepatocytes; 15 min): 4.3597 and 5.0085 and 5.1884
- Negative Control Data, Heat Treated (HT), Ln Concentration (human hepatocytes; 240 min): 4.9004 and 4.9391 and 4.9107
- Ln Concentration (human hepatocytes; time 0 min): 3.4977 and 3.5184 and 3.3762
- Ln Concentration (human hepatocytes; time 15 min): 4.0516 and 4.0675 and 3.8232
- Ln Concentration (human hepatocytes; time 30 min): 3.7647 and 3.6457 and 3.2925
- Ln Concentration (human hepatocytes; time 60 min): 4.1190 and 4.0115 and 3.2249
- Ln Concentration (human hepatocytes; time 120 min): 4.2452 and 3.9281 and 3.6055
- Ln Concentration (human hepatocytes; time 240 min): 4.5149 and 4.7648 and 4.7557
- Linear Regression Best-Fit Slope (ln concentration vs time) (human hepatocytes): 0.000858
- abundance relative to HFPO-TeA (hepatocytes; T0 active hepatocyte preparation): < 1%
